Source: PubChem BioAssay AID2060613 (Molecular Pharmacology Branch, DTP, NCI, 2025)

Test system: 233499-124-R-J3-PDC complex spheroid viability
Test: Anticancer human tumor 233499-124-R-J3-PDC patient-derived colon adenocarcinoma cell line growth inhibition [CLK]
Details: for IC50: curve of first compound; for viability, T/C: stronger effect = lower value
Procedure, shortened: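 Patient-derived tumor cells grown as complex spheroids with HUVEC endothelial cells and mesenchymal stem cells, treated with drug combinations. Concentrations descend in half-log steps from near clinical Cmax, or from 10 microM if Cmax unknown.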

[1] = second compound 0.0316 µM, first compound 0.0316 µM
[2] = second compound 0.0316 µM, first compound 0.1 µM
[3] = second compound 0.0316 µM, first compound 0.316 µM
[4] = second compound 0.0316 µM, first compound 1 µM
[5] = second compound 0.1 µM, first compound 0.0316 µM
[6] = second compound 0.1 µM, first compound 0.1 µM
[7] = second compound 0.1 µM, first compound 0.316 µM
[8] = second compound 0.1 µM, first compound 1 µM
[9] = second compound 0.316 µM, first compound 0.0316 µM
[10] = second compound 0.316 µM, first compound 0.1 µM
[11] = second compound 0.316 µM, first compound 0.316 µM
[12] = second compound 0.316 µM, first compound 1 µM
[13] = second compound 1 µM, first compound 0.0316 µM
[14] = second compound 1 µM, first compound 0.1 µM
[15] = second compound 1 µM, first compound 0.316 µM
[16] = second compound 1 µM, first compound 1 µM
[17] = second compound 3.16 µM, first compound 0.0316 µM
[18] = second compound 3.16 µM, first compound 0.1 µM
[19] = second compound 3.16 µM, first compound 0.316 µM
[20] = second compound 3.16 µM, first compound 1 µM
[21] = second compound 10 µM, first compound 0.0316 µM
[22] = second compound 10 µM, first compound 0.1 µM
[23] = second compound 10 µM, first compound 0.316 µM
[24] = second compound 10 µM, first compound 1 µM
[25] = second compound 0.0316 µM, first compound 3.16 µM
[26] = second compound 0.0316 µM, first compound 10 µM
[27] = second compound 0.1 µM, first compound 3.16 µM
[28] = second compound 0.1 µM, first compound 10 µM
[29] = second compound 0.316 µM, first compound 3.16 µM
[30] = second compound 0.316 µM, first compound 10 µM
[31] = second compound 1 µM, first compound 3.16 µM
[32] = second compound 1 µM, first compound 10 µM
[33] = second compound 3.16 µM, first compound 3.16 µM
[34] = second compound 3.16 µM, first compound 10 µM
[35] = second compound 10 µM, first compound 3.16 µM
[36] = second compound 10 µM, first compound 10 µM
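Also: spheroids exposed to the drug combinations for seven days.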
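For viability, T/C in this document: percent viability relative to DMSO vehicle control wells taken as 100%.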

CCc1c2c(nc3ccc(O)cc13)-c1cc3c(c(=O)n1C2)COC(=O)[C@]3(O)CC + CNC(=O)c1ccc(Nc2nc(OC3CCCC3)c3c(-c4ccc5nc(C)oc5c4)c[nH]c3n2)c(OC)c1
IC50 (second compound 0.0316 µM): 114 nM | IC50 (second compound 0.1 µM): 34.5 nM | IC50 (second compound 0.316 µM): 15.8 nM | IC50 (second compound 1 µM): 15.2 nM | IC50 (second compound 3.16 µM): 4.68 nM | IC50 (second compound 10 µM): < 3.16 nM | viability, T/C (second compound 0.0316 µM, first compound 0.00316 µM): 76% | viability, T/C (second compound 0.0316 µM, first compound 0.01 µM): 56.8% | viability, T/C [1]: 55% | viability, T/C [2]: 61.8% | viability, T/C [3]: 34.7% | viability, T/C [4]: 18.3% | viability, T/C (second compound 0.1 µM, first compound 0.00316 µM): 57.5% | viability, T/C (second compound 0.1 µM, first compound 0.01 µM): 53.8% | viability, T/C [5]: 47.3% | viability, T/C [6]: 46.6% | viability, T/C [7]: 31.1% | viability, T/C [8]: 11.6% | viability, T/C (second compound 0.316 µM, first compound 0.00316 µM): 65.5% | viability, T/C (second compound 0.316 µM, first compound 0.01 µM): 50% | viability, T/C [9]: 38.4% | viability, T/C [10]: 45.1% | viability, T/C [11]: 19.6% | viability, T/C [12]: 11.3% | viability, T/C (second compound 1 µM, first compound 0.00316 µM): 63% | viability, T/C (second compound 1 µM, first compound 0.01 µM): 49.8% | viability, T/C [13]: 40.2% | viability, T/C [14]: 53.6% | viability, T/C [15]: 12.3% | viability, T/C [16]: 5.66% | viability, T/C (second compound 3.16 µM, first compound 0.00316 µM): 50.9% | viability, T/C (second compound 3.16 µM, first compound 0.01 µM): 48.6% | viability, T/C [17]: 25.6% | viability, T/C [18]: 18% | viability, T/C [19]: 6.64% | viability, T/C [20]: 5.12% | viability, T/C (second compound 10 µM, first compound 0.00316 µM): 51% | viability, T/C (second compound 10 µM, first compound 0.01 µM): 32.3% | viability, T/C [21]: 35.1% | viability, T/C [22]: 17.8% | viability, T/C [23]: 8.94% | viability, T/C [24]: 2.94%

C=CC(=O)Nc1cc(Nc2nccc(-c3cn(C)c4ccccc34)n2)c(OC)cc1N(C)CCN(C)C + CN1CCN(c2cc(C(=O)Nc3cc4cc(-c5cnn(C)c5)ccc4cn3)ccn2)CC1
IC50 (second compound 0.0316 µM): > 300 nM | IC50 (second compound 0.1 µM): > 300 nM | IC50 (second compound 0.316 µM): > 300 nM | IC50 (second compound 1 µM): < 0.949 nM | IC50 (second compound 3.16 µM): < 0.949 nM | IC50 (second compound 10 µM): < 0.949 nM | viability, T/C (second compound 0.0316 µM, first compound 0.000949 µM): 85.9% | viability, T/C (second compound 0.0316 µM, first compound 0.003 µM): 100% | viability, T/C (second compound 0.0316 µM, first compound 0.00949 µM): 102% | viability, T/C (second compound 0.0316 µM, first compound 0.03 µM): 104% | viability, T/C (second compound 0.0316 µM, first compound 0.0949 µM): 99.3% | viability, T/C (second compound 0.0316 µM, first compound 0.3 µM): 91.8% | viability, T/C (second compound 0.1 µM, first compound 0.000949 µM): 98% | viability, T/C (second compound 0.1 µM, first compound 0.003 µM): 102% | viability, T/C (second compound 0.1 µM, first compound 0.00949 µM): 93.7% | viability, T/C (second compound 0.1 µM, first compound 0.03 µM): 97.9% | viability, T/C (second compound 0.1 µM, first compound 0.0949 µM): 94.5% | viability, T/C (second compound 0.1 µM, first compound 0.3 µM): 83% | viability, T/C (second compound 0.316 µM, first compound 0.000949 µM): 90.3% | viability, T/C (second compound 0.316 µM, first compound 0.003 µM): 92.2% | viability, T/C (second compound 0.316 µM, first compound 0.00949 µM): 89.7% | viability, T/C (second compound 0.316 µM, first compound 0.03 µM): 89.4% | viability, T/C (second compound 0.316 µM, first compound 0.0949 µM): 93.8% | viability, T/C (second compound 0.316 µM, first compound 0.3 µM): 76.6% | viability, T/C (second compound 1 µM, first compound 0.000949 µM): 4.73% | viability, T/C (second compound 1 µM, first compound 0.003 µM): 9.3% | viability, T/C (second compound 1 µM, first compound 0.00949 µM): 0.69% | viability, T/C (second compound 1 µM, first compound 0.03 µM): 1.14% | viability, T/C (second compound 1 µM, first compound 0.0949 µM): 0.77% | viability, T/C (second compound 1 µM, first compound 0.3 µM): 0.67% | viability, T/C (second compound 3.16 µM, first compound 0.000949 µM): 0.69% | viability, T/C (second compound 3.16 µM, first compound 0.003 µM): 0.65% | viability, T/C (second compound 3.16 µM, first compound 0.00949 µM): 0.63% | viability, T/C (second compound 3.16 µM, first compound 0.03 µM): 0.6% | viability, T/C (second compound 3.16 µM, first compound 0.0949 µM): 0.55% | viability, T/C (second compound 3.16 µM, first compound 0.3 µM): 1.62% | viability, T/C (second compound 10 µM, first compound 0.000949 µM): 0.51% | viability, T/C (second compound 10 µM, first compound 0.003 µM): 0.59% | viability, T/C (second compound 10 µM, first compound 0.00949 µM): 0.58% | viability, T/C (second compound 10 µM, first compound 0.03 µM): 0.51% | viability, T/C (second compound 10 µM, first compound 0.0949 µM): 0.4% | viability, T/C (second compound 10 µM, first compound 0.3 µM): 0.27%

CC1(C)CCC(CN2CCN(c3ccc(C(=O)NS(=O)(=O)c4ccc(NCC5CCOCC5)c([N+](=O)[O-])c4)c(Oc4cnc5[nH]ccc5c4)c3)CC2)=C(c2ccc(Cl)cc2)C1 + CNC(=O)c1ccc(Nc2nc(OC3CCCC3)c3c(-c4ccc5nc(C)oc5c4)c[nH]c3n2)c(OC)c1
IC50 (second compound 0.0316 µM): 6790 nM | IC50 (second compound 0.1 µM): 3350 nM | IC50 (second compound 0.316 µM): 3140 nM | IC50 (second compound 1 µM): 4670 nM | IC50 (second compound 3.16 µM): 2870 nM | IC50 (second compound 10 µM): 4470 nM | viability, T/C [1]: 79.5% | viability, T/C [2]: 96.9% | viability, T/C [3]: 94.3% | viability, T/C [4]: 106% | viability, T/C [25]: 96.5% | viability, T/C [26]: 27.2% | viability, T/C [5]: 68.9% | viability, T/C [6]: 70.2% | viability, T/C [7]: 85% | viability, T/C [8]: 76.2% | viability, T/C [27]: 51.6% | viability, T/C [28]: 20.8% | viability, T/C [9]: 76.4% | viability, T/C [10]: 79.6% | viability, T/C [11]: 81.3% | viability, T/C [12]: 76.8% | viability, T/C [29]: 49.9% | viability, T/C [30]: 25.1% | viability, T/C [13]: 74.3% | viability, T/C [14]: 90% | viability, T/C [15]: 72.1% | viability, T/C [16]: 68.4% | viability, T/C [31]: 60.1% | viability, T/C [32]: 33.5% | viability, T/C [17]: 77.1% | viability, T/C [18]: 66.5% | viability, T/C [19]: 76% | viability, T/C [20]: 76.6% | viability, T/C [33]: 47.8% | viability, T/C [34]: 24.2% | viability, T/C [21]: 70.1% | viability, T/C [22]: 71.9% | viability, T/C [23]: 76.8% | viability, T/C [24]: 74.9% | viability, T/C [35]: 59% | viability, T/C [36]: 29.2%

CC(=O)O[C@H]1C(=O)[C@@]2(C)[C@H]([C@H](OC(=O)c3ccccc3)[C@]3(O)C[C@H](OC(=O)[C@H](O)[C@@H](NC(=O)c4ccccc4)c4ccccc4)C(C)=C1C3(C)C)[C@]1(OC(C)=O)CO[C@@H]1C[C@@H]2O + CNC(=O)c1ccc(Nc2nc(OC3CCCC3)c3c(-c4ccc5nc(C)oc5c4)c[nH]c3n2)c(OC)c1
IC50 (second compound 0.0316 µM): 140 nM | IC50 (second compound 0.1 µM): > 10000 nM | IC50 (second compound 0.316 µM): > 10000 nM | IC50 (second compound 1 µM): > 10000 nM | IC50 (second compound 3.16 µM): > 10000 nM | IC50 (second compound 10 µM): > 10000 nM | viability, T/C [1]: 80% | viability, T/C [2]: 59.4% | viability, T/C [3]: 18.2% | viability, T/C [4]: 21.5% | viability, T/C [25]: 31.4% | viability, T/C [26]: 37.7% | viability, T/C [5]: 81.2% | viability, T/C [6]: 66% | viability, T/C [7]: 50.7% | viability, T/C [8]: 78.5% | viability, T/C [27]: 72.9% | viability, T/C [28]: 66.5% | viability, T/C [9]: 67.9% | viability, T/C [10]: 81% | viability, T/C [11]: 84.8% | viability, T/C [12]: 90.6% | viability, T/C [29]: 78.8% | viability, T/C [30]: 68.4% | viability, T/C [13]: 91.2% | viability, T/C [14]: 85.9% | viability, T/C [15]: 77.5% | viability, T/C [16]: 72.5% | viability, T/C [31]: 96.3% | viability, T/C [32]: 66.7% | viability, T/C [17]: 77% | viability, T/C [18]: 87.8% | viability, T/C [19]: 89.5% | viability, T/C [20]: 90.5% | viability, T/C [33]: 83.3% | viability, T/C [34]: 74.2% | viability, T/C [21]: 67.5% | viability, T/C [22]: 82.3% | viability, T/C [23]: 79.1% | viability, T/C [24]: 79% | viability, T/C [35]: 81.1% | viability, T/C [36]: 85.8%
